The residual activity is the activity still measured, relative to the control.

In this assay the target is Histone deacetylase. The experiment in a line: In vitro residual activity against Histone deacetylase (HDAC) at 1 uM concentration.
`Br.O=C(CCCCCCC(=O)NCCCNCCCCNCCC(c1ccccc1)c1ccccc1)NO` showed a residual activity of 26.1%.

On to `O=C(CCCCC(=O)NCCCCN(Cc1ccccc1-c1ccccc1)Cc1ccccc1-c1ccccc1)NO`, for which the residual activity worked out at 96.3%.

On to `Br.CN(C)c1ccc(CN(CCCNCCCCN)C(=O)CCCCC(=O)NO)cc1`, for which the residual activity was found to be 40%.

For `Cc1ccc(CNCCCCNC(=O)CCCCCCC(=O)NO)cc1.O=C(O)C(F)(F)F`, the residual activity amounted to 46.8%.

`CN(C)c1ccc(CNCCCCNC(=O)CCCCC(=O)NO)cc1.O=C(O)C(F)(F)F` gave a residual activity of 89.7%.

In turn, `Br.CC(C)(C)c1ccc(CNCCCCNCCCNC(=O)CCCCC(=O)O)cc1` gave a residual activity of 98.5%.

For `Br.CC(C)(C)c1ccc(CNCCCCNCCCNC(=O)CCCCCCC(=O)NO)cc1`, the residual activity stood at 50.6%.

In turn, `O=C(CCCCC(=O)NCCCCNCc1ccccc1-c1ccccc1)NO` showed a residual activity of 83.7%.

The molecule `Br.O=C(CCCCC(=O)NCCCNCCCCNCCC(c1ccccc1)c1ccccc1)NO` registered a residual activity of 80.2%.

`Br.CC(C)(C)c1ccc(CNCCCCNCCCNC(=O)CCCCC(=O)NO)cc1` came in with a residual activity of 25.1%.

For `CN(C)c1ccc(CN(CCCCN)C(=O)CCCCCCC(=O)NO)cc1.O=C(O)C(F)(F)F`, the residual activity worked out at 84.4%.

The molecule `Cc1ccc(CNCCCCNC(=O)CCCCC(=O)NO)cc1` displayed a residual activity of 55.8%.

`CN(C)c1ccc(CNCCCCNC(=O)CCCCCCC(=O)NO)cc1.O=C(O)C(F)(F)F` returned a residual activity of 66.1%.

Consider `Br.O=C(CCCCC(=O)NCCCNCCCNCCCNCCCNCC1CCCCCC1)NO`, for which the residual activity was determined as 59%.
